Laboratory results taken from patent publication US4933347A, “Diamidines and bis(imidazolines) for the treatment of and prophylaxis against pneumocystis carinii pneumonia” (University of North Carolina at Chapel Hill, priority 1988, dated 1990).
Entries after “also recorded” stand apart in the source; their conditions may differ.

Test system: Pneumocystis carinii
Assay: Treatment of Pneumocystis carinii pneumonia in Sprague-Dawley rats (extent of disease by histologic score)
Assay type: in vivo, male Sprague-Dawley rats
Conditions: for Extent of Disease by Histologic Score: number of animals with score 0.5 / Extent of disease by histologic score (combined): number of animals in scoring group 0.5: 0.5 = <10 cysts found per 2 sections; for Extent of Disease by Histologic Score: number of animals with score 1 / Extent of disease by histologic score (combined): number of animals in scoring group 1: 1 = scattered cysts, <5% of lung involved; for Extent of Disease by Histologic Score: number of animals with score 2 / Extent of disease by histologic score (combined): number of animals in scoring group 2: 2 = scattered cysts; for Extent of Disease by Histologic Score: number of animals with score 2: 5-10% lung involved or small foci of infection; for Extent of Disease by Histologic Score: number of animals with score 3 / Extent of disease by histologic score (combined): number of animals in scoring group 3: 3 = scattered cysts; for Extent of disease by histologic score (combined): number of animals in scoring group 0.5 / Extent of disease by histologic score (combined): number of animals in scoring group 1 / Extent of disease by histologic score (combined): number of animals in scoring group 2 / Extent of disease by histologic score (combined): number of animals in scoring group 3 / Extent of disease by histologic score (combined): number of animals in scoring group 4: Table XII composite, 10 mg/kg; for Extent of disease by histologic score (combined): number of animals in scoring group 2: 5-10% of lung involved
Method: Induction and Treatment Of Pneumocystis Carinii in Sprague-Dawley Rats
Male Sprague-Dawley rats, barrier raised, non-certified virus free, weighing 150-200g were obtained from Hilltop Laboratories and housed individually. Animals were begun on a low (8%) protein diet (ICN Biomedicals, Cincinnati, OH) and drinking water containing tetracycline (0.5 mg/ml) and dexamethasone (1.0 μg/ml) immediately upon arrival. This treatment was given for the next 8 weeks, monitoring fluid intake daily and weighing animals weekly. Dilutions of the drinking solution were made when animals consumed too much fluid so as to prevent cortisone poisoning. At the beginning of the sixth week, animals were divided into groups of 8 animals each and the test compounds were administered daily by i.v. injection at a dose of 10 mg/kg, unless otherwise noted, for the next 14 days.
Animals were sacrificed at the end of the eighth week by chloroform inhalation and the left lung was removed aseptically and placed in sterile Hank's balanced salts solution without calcium or magnesium (HBSS-) for the ground tissue procedure. The right lung was inflated in situ with 10% […] and removed for histologic examination GMS staining. […]

[1] = 10 mg/kg i.v. daily, 14 days, 10-50% of lung involved with some intense areas of infection
[2] = 10 mg/kg i.v. daily, 14 days, 4 = >50% of lung involved with many intense areas of focal infection
[3] = 10 mg/kg unless otherwise noted

SMILES	Extent of Disease by Histologic Score: number of animals with score 0.5 (10 mg/kg i.v. daily, 14 days) [animals]	Extent of Disease by Histologic Score: number of animals with score 1 (10 mg/kg i.v. daily, 14 days) [animals]	Extent of Disease by Histologic Score: number of animals with score 2 (10 mg/kg i.v. daily, 14 days) [animals]	Extent of Disease by Histologic Score: number of animals with score 3 [1] [animals]	Extent of Disease by Histologic Score: number of animals with score 4 [2] [animals]	Efficacy in treating PCP compared with control [3]	Efficacy in treating PCP compared with pentamidine [3]	Extent of disease by histologic score (combined): number of animals in scoring group 0.5 [animals]	Extent of disease by histologic score (combined): number of animals in scoring group 1 [animals]	Extent of disease by histologic score (combined): number of animals in scoring group 2 [animals]	Extent of disease by histologic score (combined): number of animals in scoring group 3 (10-50% of lung involved) [animals]	Extent of disease by histologic score (combined): number of animals in scoring group 4 (4 = >50% of lung involved) [animals]	other results
N=C(N)c1ccc(OCCOc2ccc(C(=N)N)cc2N)c(N)c1 [Example 3]	4	4	0	0	0	significantly better than the control	approximately comparable to pentamidine in efficacy	4	4	0	0	0	–
N=C(N)c1ccc(OCCCOc2ccc(C(=N)N)cc2)cc1 [Example 4]	3	4	1	0	0	–	better at controlling the extent of the pcp infection than either para- or meta- pentamidine	3	4	1	0	0	–
N=C(N)c1ccc(OCCCOc2ccc(C(=N)N)cc2N)c(N)c1 [Example 5]	2	4	1	0	0	significantly better than the control	approximately comparable to pentamidine in efficacy	2	4	1	0	0	–
N=C(N)c1ccc(NCCCNc2ccc(C(=N)N)cc2)cc1 [Example 7]	5	1	2	0	0	–	better than or equal to pentamidine	5	1	2	0	0	Efficacy in treating PCP compared with related compounds of the series (effect of chain length or substituent): most effective
N=C(N)c1ccc(OCCCCOc2ccc(C(=N)N)cc2)cc1 [Example 9, butamidine]	–	–	0	0	0	–	significantly better than pentamidine in controlling pcp; also recorded: significantly better than pentamidine at the 10 mg/kg dosage level	8	0	0	0	0	Extent of Disease by Histologic Score: number of animals with score 0.5 (0.1 mg/kg): 0 animals; Extent of Disease by Histologic Score: number of animals with score 1 (0.1 mg/kg): 0 animals; Extent of Disease by Histologic Score: number of animals with score 2 (0.1 mg/kg): 4 animals; Extent of Disease by Histologic Score: number of animals with score 3 (0.1 mg/kg, 10-50% of lung involved): 5 animals; Extent of Disease by Histologic Score: number of animals with score 4 (0.1 mg/kg, 4 = >50% of lung involved): 2 animals; Efficacy in treating PCP compared with pentamidine (1 mg/kg or 0.1 mg/kg): essentially no difference in the two compounds; Extent of Disease by Histologic Score: number of animals with score 0.5 (1 mg/kg): 0 animals; Extent of Disease by Histologic Score: number of animals with score 1 (1 mg/kg): 1 animals; Extent of Disease by Histologic Score: number of animals with score 2 (1 mg/kg): 3 animals; Extent of Disease by Histologic Score: number of animals with score 3 (1 mg/kg, 10-50% of lung involved): 5 animals; Extent of Disease by Histologic Score: number of animals with score 4 (1 mg/kg, 4 = >50% of lung involved): 3 animals
N=C(N)c1ccc(OCCCCOc2ccc(C(=N)N)cc2N)c(N)c1 [Example 10]	2	5	1	0	0	significantly better than the control	approximately comparable to pentamidine in efficacy	2	5	1	0	0	–
N=C(N)c1ccc(OCCCCCOc2ccc(C(=N)N)cc2N)c(N)c1 [Example 14]	–	–	–	–	0	significantly better than the control	improved performance in treating pcp; also recorded: approximately comparable to pentamidine in efficacy	8	5	1	1	0	–
